The test system of this assay is primary GBM cells taken from eight patients with recurrent GBM. Briefly: GBM cell cytotoxicity of IRN, TMZ and IRN+PVT, increasing concentrations, 5 days (MTT). It counts as cell-based, human. Here is the method:
TMZ, IRN and IRN+PVT were added at increasing concentrations up to 5 log nm to cultured primary GBM cells taken from eight patients with recurrent GBM. After 5 days of exposure an MTT assay was performed to assess % cell viability.

SMILES strings stand for the structures. pIC50: −log10 of the molar value.

A word on the pIC50: it is the IC50 on a negative log10 scale, so that one unit is a factor of ten. A higher pIC50 goes with a low IC50. On to `CCc1c2c(nc3ccc(OC(=O)N4CCC(N5CCCCC5)CC4)cc13)-c1cc3c(c(=O)n1C2)COC(=O)[C@]3(O)CC` [IRN, irinotecan], for which the negative-log IC50 (pIC50) (Homo sapiens, 120 h, determined from FIG. 23, 5 days exposure, eight patient lines) is 5.50. For the same molecule, the “response of the eight patient cell lines to treatment” value (up to 5 log nm, 5 days of exposure) was “Six of the eight patient cell lines responded”.
